The text below walks through data of patent US6552066B1, “Protein tyrosine kinase inhibitors for treating osteoarthritis” (priority 1995, dated 2003).

The test system of data set [1] is IL-1 induced release of 35S-labelled proteoglycans from chondrocytes. As to the kind of experiment: Chondrocyte cell culture matrix breakdown assay (IL-1 induced 35S release). Conditions: for inhibitory effect on IL-1 induced release of 35S-labelled proteoglycans: first experiment; for percent inhibition of IL-1 induced 35S release: repeated assay. Type of data set: cell-based, calf (bovine). The method, then: A cell culture assay was used to measure the ability of the test compounds to slow the degradation of the extracellular matrix by a metalloproteinase. This assay measured the amount ^35S released from chondrocytes grown in a media with ^35S labeled sodium sulfate. The cell culture assay was carried out as follows:
Two or three 1 to 3 week old calf joints were obtained from an abattoir. The proximal end of the shank was about 4-5′ long to facilitate immobilization in the holder. The joint was kept cool and transported on ice. The exterior of the intact joints was washed well with a suitable anti-microbial soap, rinsed clean with warm water, rinsed in betadine and then finally rinsed with 70% ethanol. Up to this point all steps were done in a manner to ensure that the joint was kept as clean as possible. All subsequent steps were performed in a sterile field (i.e., in a Edgeguard laminar flow tissue culture hood). The joint was immobilized and the synovial fluid was aspirated with a needle and syringe. The joint was then cut open to expose the articular cartilage using a #21 scalpel. Using locking hemostats, forceps and a #15 scalpel, the cartilage was excised in full thickness pieces. Care was taken not to cut too deep into the subchondral bone to prevent bleeding. The cartilage pieces were placed into a 50 mL centrifuge tube containing 25 mL of Delbecco's phosphate buffered saline (D-PBS) supplemented with 1% antibiotic solution (penicillin, streptomycin and fungizone; GIBCO/BRL). The slices from each joint were then placed into separate 50 mL centrifuge tubes. The D-PBS was decanted and replaced with 25 mL of fresh D-PBS supplemented with antibiotics and subsequently agitated gently.
The cartilage pieces were transferred to a fresh 50 mL centrifuge tube and rinsed once more with 25 mL of D-PBS minus antibiotics. An enzymatic digestion solution containing 1 mg/mL of hyaluronidase in serum-free 1:1 DMEM/Ham's F-12 (DMEM/F12) was prepared. This solution was filter sterilized with 0.22 mm Milex-GV filter and kept on ice until ready to use. The cartilage pieces were digested with approximately 5 mL of hyaluronidase solution per joint for 2×15 minutes at 37° C. in the 50 mL centrifuge tube with gentle agitation at the 15 minute mark. This procedure removed residual hyaluronic acid from the surface of the chips. The enzymatic digestion solution was then aspirated and the cartilage pieces were rinsed with 25 mL of D-PBS.
A second enzymatic digestion solution containing 2.5 mg trypsin and 2 mg collagenase P per mL serum-free DMEM/F12 was prepared. This solution was also filter sterilized with a 0.22 mm Millex-GV filter and kept on ice until ready to use. The cartilage pieces were digested with approximately 5 mL of trypsin: collagenase solution per joint for 2×15 minutes at 37° C. in the 50 mL centrifuge tube with gentle agitation at the 15 minute mark. This procedure removed the synovial fibroblasts and any adherent connective tissue from the surface of the chips. The enzymatic digestion solution was then carefully removed and saved and the cartilage pieces were rinsed with 25 mL of D-PBS.
A third enzymatic solution containing 2 mgs of collagenase P (BMB) per mL serum-free DMEM/F12 was prepared. This solution was filter sterilized with a 0.22 mm Millex-GV filter and kept on ice until ready to use. The pre-digested cartilage pieces were finally digested with approximately 20 mL of enzymatic digestion solution per joint for 5-6 hours at 37° C. in a Bellco stirring digestion flask, at which point the cartilage was fully digested away.
The enzymes in the synovial fibroblast and chondrocyte digest were neutralized by addition of an equal volume of DMEM/F12 supplemented with 5% fetal bovine serum. Fibroblasts were plated in DMEM at a cellular density of 6.6×10^3 cells per cm^2. […]

Data set [2] concerns IL-1-induced aggrecan degradation. As to the kind of experiment: Aggrecan degradation in IL-1-stimulated chondrocytes, 2-B-6 antibody immunoblot. The class given is cell-based, bovine. Here is the method: (§1) Primary bovine articular chondrocytes from calf adio-carpal joints were isolated and cultured as above in Example 1, up to and including the addition of the following protein kinase inhibitors: 1) Protein kinase A (PKA) inhibitors; 0.5 μM H88 (Seikagaku Corp.), 0.5 μM H89 (Seikagaku Corp.); 2) Protein kinase C (PKC) inhibitors; 0.5 μM Calphostin C (Calbiochem), 1.0 μM Chelerythrine (Calbiochem); 3) CA^2+/Calmodulin Kinase II inhibitor; 5.0 μM KN93 (Seikagaku Corp.); 4) Protein tyrosine kinase (PTK) inhibitors; 50 μM Genistein (Calbiochem), 10 μM Herbimycin A (Calbiochem). After the 24 hour IL-1α incubation, the media of each sample was measured, and collected on ice in the presence of the protease inhibitors EGTA (5 mM), Pefaloc (1 mM), pepstatin (1 μg/ml), and NEM (5 mM). Media were concentrated approximately 40 fold using a Centriprep-10 ultrafiltration device (Amicon).
(§2) Proteoglycans contained within the media were deglycosylated by incubations with chondroitinase ABC, keratinase, and keratinase II following the procedure of Sandy et al. J Biol Chem (1991) 266:8683-8685 and Sandy et al. J. Clin Invest (1992) 89:1512-1516. Samples of deglycosylated media were subjected to 4-15% gradient SDS-PAGE and transferred to nitrocellulose membranes (2 ml-worth and 6 ml-worth of media were used for 2-B-6 and BC-3 immunoblotting, respectively.) The membranes were blocked with 1% nonfat dry milk and 1% BSA, and then incubated in either the BC-3 or 2-B-6 primary monoclonal antibody for 1 hour. The 2-B-6 antibody detects chondroitin sulfate stubs on chondroitinase-treated proteoglycans (both intact and degradation products. BC-3 antibody detects “ARGSV . . . ,” the new N-terminus (“neoepitope”) resulting from cleavage of aggrecan interglobular domain at Glu^373/ALA^374 by aggrecanase. It is of note to mention that the BC-3 and 2-B-6 antibodies were of low sensitivity. Following 3 washes, membranes were incubated in either alkaline phosphatase-conjugated goat anti-mouse (for the 2-B-6 blot) or biotinylated goat anti-mouse (for the BC-3 blot); followed by alkaline phosphatase-conjugated streptavidin/biotin complex). After washing 3 times, immunoreactive proteins were detected using NBT/BCIP (Sigma) colorimetric substrate.
The 2-B-6 antibody detected intact aggrecan (the uppermost band) and several aggrecan degradation products, along with decorin and biglycan (50K doublet), in the IL-1-treated media samples. […] The bands in the IL-1 sample that are seen at 230K, 200K, 130K and 100K have been previously identified by sequence analysis to result from IL-1-induced “aggrecanase” cleavage.
A repeat of the Western immunoblotting experiment using 2-B-6 antibodies was performed. Furthermore, additional inhibitors from four enzyme families were examined: 1) Protein tyrosine kinase (PTK) inhibitors; 1 μM Tryphostin AG 1296 (Calbiochem), 50 μM Tyrphostin A25 (AG 82) (Calbiochem), 50 μM Tyrphostin AG 126 (Calbiochem), 50 μM Tyrphostin B56 (AG 556) (Calbiochem), 20 μM DAPH (Calbiochem); 2) Guanylate cyclase inhibitor; 10 μM LY-83583 (Calbiochem); 3) Casein kinase I inhibitor; 20 μM CKI-7 (Seikagaku Corp.); and 4) Protein kinase G (PKG) and PKA inhibitor; 5.0 μM H89.
On the technique in general: In western blotting, separated proteins are transferred to a membrane and probed.

A further data set relates to prostromelysin protein. Put plainly: Western immunoblot of IL-1-induced prostromelysin protein in primary bovine chondrocytes. The class given is cell-based. Conditions: for effect on IL-1-induced prostromelysin levels: first experiment; for effect on IL-1α-induced prostromelysin protein levels: repeat experiment. Here is the method: Isolation and culturing of primary bovine articular chondrocytes, as well as addition of inhibitors were performed as indicated above in Example 4. The following protein kinase inhibitors were tested: 1) Protein kinase A (PKA) inhibitors; 0.5 μM H88 (Seikagaku Corp.), 0.5 μM H89 (Seikagaku Corp.), 2) Protein kinase C (PKC) inhibitors; 0.5 μM Calphostin C (Calbiochem), 1.0 μM Chelerythrine (Calbiochem); 3) CA^2+/Calmodulin Kinase II inhibitor; 5.0 μM KN93 (Seikagaku Corp.); 4) Protein tyrosine kinase (PTK) inhibitors; 50 μM Genistein (Calbiochem), 10 μM Herbimycin A (Calbiochem).
After the 24 hour IL-1α incubation, the media of each sample was measured and collected on ice in the presence of the protease inhibitors EGTA (5 mM), Pefabloc (1 mM), pepstatin (1 μg/ml), and NEM (5 mM). Media were concentrated approximately 40 fold using a Centriprep-10 ultrafiltration device (Amicon). Concentrated samples were normalized to equivalent starting concentrations (cell number/culture volume), were reduced in the presence of SDS Laemmli sample buffer and electrophoresed in a precast 12% polyacrylamide gel (BioRad). Protein samples were then electroblotted to nitrocellulose and immunodetected using a primary antibody that recognizes both prostromelysin and stromelysin. Immunoreactive bands were visualized with the ABC detection (Pierce) and an NBT/BCIP color reagent (Sigma).
A repeat of the Western immunoblotting experiment using antistromelysin antibodies was performed. Furthermore, additional inhibitors from four enzyme families were examined: 1) Protein tyrosine kinase (PTK) inhibitors: 1 μM Tyrphostin AG 1296 (Calbiochem), 50 μM Tyrphostin A25 (AG 82) (Calbiochem), 50 μM Tyrphostin AG 126 (Calbiochem); 2) Guanylate cyclase inhibitor; 10 μM LY-83583 (Calbiochem); 3) Casein kinase I inhibitor; 20 μM CKI-7 (Seikagaku Corp.); and 4) Protein kinase G (PKG) and PKA inhibitor; 5.0 μM H89.

Data set [3] relates to aggrecanase cleavage of aggrecan (230K fragment). Put plainly: Aggrecanase neoepitope in IL-1-stimulated chondrocytes, BC-3 antibody immunoblot. Type of data set: cell-based, bovine. The method, then: as §1, §2
Data set [4] concerns primary bovine articular chondrocytes. Put plainly: In vitro MTT cytotoxicity assay. Type of data set: cell-based. Conditions: 1 μM; 20 hours incubation + 4 hours MTT. From the text: The evaluation of cytotoxicity of compounds by in vitro methods allows one to establish criteria which allow rank ordering among compounds. These methods assess cell permeability, release of cytosolic enzymes, and oxidative potential of cells. The use of tetrazolium dyes to assess cytotoxicity has been established in the area of oncology, where such assays were developed to assess the cytotoxic potential of various chemotherapeutic agents. We have adapted the use of the MTT (3-(4,5-dimethylthiazol-2-yl)-2,5-diphenyl tetrazolium bromide) in an assay using primary bovine articular chondrocytes. The procedure for this assay is given below.
Chondrocytes are isolated from bovine calf radio-carpal joints as described in Example 1. Cells are plated in two 96-well plates at 4×10^4 cells per well, in DMEM/F12 media supplemented with 10% fetal bovine serum. The cultures are refed on days 4, 7, 11, 14, 18, 21 and 24. On day 27, the cells are rinsed with PBS, and incubated for 20 hours with 0.2 ml/well of serum-free DMEM/F12 plus 0.1% DMSO, and the test compounds. Genistein (50 μM), Herbimycin (10 μM) and Staurosporine (1 μM) were each used as test compounds. […] The 96-well plate is then read in a microplate reader at 560 nm, with subtraction of absorbance at 750 nm to account for cell debris.
(In general: Tetrazolium assays rely on reduction of a dye to a coloured formazan, in cell work by metabolically active cells.)

The next data set deals with bovine cartilage explant. The conditions noted are these: cited from earlier work.

Turning to `COc1ccc2c(c[n+](C)c3c4cc5c(cc4ccc23)OCO5)c1OC` [Chelerythrine], the “inhibitory effect on IL-1 induced release of 35S-labelled proteoglycans” value (from here on “inhibitory effect”) in data set [1] (1 μM) is listed as “no effect”. Besides, the “band pattern (ratio of intact aggrecan to 230K fragment), 2-B-6” value in data set [2] (1.0 μM) is on record as “pattern similar to IL-1 alone”.
In the case of `O=S(=O)(NCCNC/C=C/c1ccc(Br)cc1)c1cccc2cnccc12` [H89], in data set [1] (0.5 μM), the “inhibitory effect” value was “no effect” and the “percent inhibition of IL-1 induced 35S release” value (shortened to “percent inhibition”) is on record as “Little or no inhibition”. Moreover, in the data set on prostromelysin protein (0.5 μM), the “effect on IL-1-induced prostromelysin levels” value is listed as “no effect”. In addition, in data set [2] (0.5 μM), the “band pattern (ratio of intact aggrecan to 230K fragment), 2-B-6” value is listed as “pattern similar to IL-1 alone”. In addition, the “BC-3 immunoreactive band at approximately 230K (aggrecanase-mediated fragment)” value (“BC-3 immunoreactive band” below) in data set [3] (0.5 μM) is reported as “detected”.
In the case of `COc1ccc(S(=O)(=O)N(CCO)c2ccccc2CN(C)C/C=C/c2ccc(Cl)cc2)cc1` [KN-93], the “inhibitory effect” value in data set [1] (5 μM) was “no effect”. Further, the “effect on IL-1-induced prostromelysin levels” value in the data set on prostromelysin protein (5.0 μM) was “no effect”. Also, in data set [2] (5.0 μM), the “band pattern (ratio of intact aggrecan to 230K fragment), 2-B-6” value was “pattern similar to IL-1 alone”. The “BC-3 immunoreactive band” value in data set [3] (5.0 μM) is recorded as “absence”.
For the molecule `O=C1C(Nc2ccccc2)=CC(=O)c2ncccc21` [LY-83583], the “effect on IL-1α-induced prostromelysin protein levels” value with prostromelysin protein (10 μM) was “no effect”.
Take `CN[C@@H]1C[C@H]2O[C@@](C)([C@@H]1OC)n1c3ccccc3c3c4c(c5c6ccccc6n2c5c31)C(=O)NC4` [Staurosporine]: in data set [4], the “cytotoxicity, reduction of MTT dye” value is given as “reduction of MTT consistent with cytotoxicity”.
Consider `COc1cc2ncc(-c3ccccc3)nc2cc1OC` [Tyrphostin AG 1296], for which, in data set [1] (1 μM), the “percent inhibition” value is “no inhibition”. In addition, the “effect on IL-1α-induced prostromelysin protein levels” value in the data set with prostromelysin protein (1 μM) is given as “no effect”. Moreover, the “inhibition of IL-1-induced aggrecan degradation, 2-B-6” value in data set [2] (1 μM, repeat experiment) is given as “no inhibitory effect”.
Take `NC1=NC(=O)/C(=C2\CCNC(=O)c3[nH]c(Br)cc32)N1` [Z-hymenialdisine]: the “inhibition of cartilage degradation in the bovine cartilage explant assay” value in the data set with bovine cartilage explant was “inhibit cartilage degradation”.
Regarding CKI-7, the “percent inhibition” value in data set [1] (20 μM) is “no inhibition”. Also, the “effect on IL-1α-induced prostromelysin protein levels” value in the data set on prostromelysin protein (20 μM) was “no effect”.
Consider Calphostin C, for which, in data set [1] (0.5 μM), the “inhibitory effect” value is reported as “no effect”. Also, in the data set on prostromelysin protein (0.5 μM), the “effect on IL-1-induced prostromelysin levels” value is “no effect”. In data set [2] (0.5 μM), the “band pattern (ratio of intact aggrecan to 230K fragment), 2-B-6” value is recorded as “pattern similar to IL-1 alone”. Moreover, the “BC-3 immunoreactive band” value in data set [3] (0.5 μM) is listed as “detected”.
